{"source": "patent US20260272879A1", "about": "“ANION-BINDING AROMATIC OLIGOAMIDE MACROCYCLES AND METHODS OF MAKING AND USING SAME” (The Research Foundation for The State University of New York, priority 2023, published 2026)", "key": {"[1]": {"test": "1H NMR titration, binding of bromide", "conditions": "DMSO-d6:CDCl3 (15:85, v/v), 25° C., NMR titration (protons a and b)", "experimental": "[…] […] The titration data were collected by monitoring the changes in chemical shifts of the backbone amide protons and the inner aromatic protons with varying ratios of the anion guests. Job plots indicate that these linear oligoamides and their anion guests bind in a 1:1 stoichiometry.\n(§1) ^1H NMR titration methods. Titrations of c5a and c5b with anions as their tetra-n-butylammonium (TBA), tetra-ethylammonium (TEA) and tetra-methylammonium (TMA) salts were carried out by ^1H NMR (400 MHz) at 25° C. 0.4 mL of corresponding hosts solutions were prepared in the rubber-cap NMR tubes. Aliquots of concentrated guest solution containing hosts were added into the NMR tubes using 20 microliter pipette. An initial ^1H NMR spectrum was collected and additional spectra were obtained after each injection of guest solution. All titration ^1H NMR spectra were stacked together and the chemical shifts of the internal aromatic CH proton were then fitted to 1:1 binding model using BindFit v0.5 (http://app.supramolecular.org/bindfit/) to evaluate binding constants to anions."}, "[2]": {"test": "1H NMR titration, binding of iodide", "conditions": "DMSO-d6:CDCl3 (15:85, v/v), 25° C.", "experimental": "^1H NMR Titration methods. Titrations of 4c and 6c with anions as their tetra-n-butyl ammonium (TBA) salts were carried out by ^1H NMR (400 MHz on Bruker-400) at room temperature (298 K). 0.5 mL of receptor 4c (5.0 mM) or 6c (2.0 mM) were prepared in the rubber-cap NMR tubes. Aliquots of concentrated TBACl or TBAI solution (50 mM for the titration of 4c and 20 mM for the titration of 6c) containing the same amount of receptors were added into the receptor solution using 20 microliter pipette. An initial ^1H NMR spectrum was collected and additional spectra were obtained after each injection of TBACl or TBAI solution. All titration ^1H NMR spectra were stacked together and the chemical shifts of amide protons were then fitted to the proposed 1:1 binding model using BindFit v0.5 (http://app.supramolecular.org/bindfit/).\nAnion binding with four amides, i.e., L1mer-L4mer, was studied in the mixed solvents of CD3CN/CDCl3 (1/9, v/v) by titrating an amide host with 0 to 5 equivalents of tetrabutylammonium (n-Bu4N^+) salt of the corresponding anion. The binding of chloride, bromide, iodide, and nitrate was examined with the four amides in CDCl3 containing 10% CD3CN. The titration data were collected by monitoring the changes in chemical shifts of the backbone amide protons and the inner aromatic protons with varying ratios of the anion guests. […]"}, "[3]": {"test": "1H NMR titration, binding of BF4^−", "conditions": "DMSO-d6:CDCl3 (15:85, v/v), 25° C., NMR titration (protons a and b)", "experimental": "as §1"}, "[4]": {"test": "1H NMR titration, binding of IO4^−", "conditions": "DMSO-d6:CDCl3 (15:85, v/v), 25° C., NMR titration (protons a and b)", "experimental": "as §1"}, "[5]": {"test": "1H NMR titration, binding of PF6^−", "conditions": "DMSO-d6:CDCl3 (15:85, v/v), 25° C., NMR titration (protons a and b)", "experimental": "as §1"}, "[6]": {"test": "Isothermal titration calorimetry (ITC), Cl^−", "format": "binding", "conditions": "25° C.", "experimental": "(§2) Isothermal titration calorimetry (ITC) experiments were performed using a MicroCal VP-ITC. ITC experiments were conducted by adding ~1.5 mL of a solution containing c5a to the sample cell. Followed by titrating 10 μL aliquots of a solution containing the corresponding TBA·X salt (~10-14× concentration of c5a solution) from the syringe into the sample cell. Heats of dilution were obtained by titrating 10 μL aliquots of the TBA·X solution from the syringe into the sample cell in the absence of c5a. The heats of dilution were subtracted from the raw data. ITC data processing and curve fitting was done using the Origin program (MicroCal).\n(§3) Two-step competition ITC experiments for determining the Ka of c5a and iodide. In CH3CN:CHCl3 (5:95, v/v), the binding affinity of c5a for I^− was too high to be determined with direct NMR or ITC titration. Instead, two-step competition ITC experiments with Cl^− as the competitor were performed."}, "[7]": {"test": "Isothermal titration calorimetry (ITC), NO3^−", "format": "binding", "conditions": "DMSO:CHCl3 (5:95, v/v), 25° C.", "experimental": "as §2, §3"}, "[8]": {"test": "Isothermal titration calorimetry (ITC), BF4^−", "format": "binding", "conditions": "DMSO:CHCl3 (5:95, v/v), 25° C.", "experimental": "as §2, §3"}, "[9]": {"test": "Isothermal titration calorimetry (ITC), IO4^−", "format": "binding", "conditions": "25° C.", "experimental": "as §2, §3"}, "[10]": {"test": "Isothermal titration calorimetry (ITC), PF6^−", "format": "binding", "conditions": "25° C.", "experimental": "as §2, §3"}, "[11]": {"test": "Halide transport, lucigenin assay", "format": "biochemical", "conditions": "POPC LUVs, inside 100 mM NaNO3 + 1 mM lucigenin, outside 100 mM NaX, pH 7.0", "text": "Determination of halide transport with the lucigenin assay."}, "[12]": {"test": "Ion transport with different MCl salts, HPTS assay", "format": "biochemical", "conditions": "POPC LUVs, 100 mM MCl, pH 7.0, 25° C.", "experimental": "Inside vesicles: 10 mM HEPES, 100 mM MCI (M=Li, Na, K, Rb), 1 mM HPTS, pH 7.0. Outside vesicles: 10 mM HEPES, 100 mM MCI, pH 7.0. A base pulse (20 μL of 0.5 M NaOH) was applied to each vesicular solution at 50 s, followed by adding 20 μL of c5a in DMF at 100 s. For each group, the vesicles were lysed after 200 s by adding 0.1% Triton X-100 to obtain the maximum emission intensity for normalization. The emission intensities of the intravesicular HPTS at 510 nm, I405 and I450, corresponding to two excitation wavelengths (405 and 450 nm) were monitored simultaneously, based on which the normalized intensity ratios (I405/I450) of the two emision intensities were obtained."}, "Solubility": {"test": "Solubility", "format": "physicochemical", "conditions": "CHCl3, CH2Cl2, DMF, and DMSO"}}}
{"smiles": "CCCCCCCCOCC(C)(C)C(=O)Nc1ccc2cc1C(=O)Nc1ccc(NC(=O)C(C)(C)COCCCCCCCC)c(c1)C(=O)Nc1ccc(NC(=O)C(C)(C)COCCCCCCCC)c(c1)C(=O)Nc1ccc(NC(=O)C(C)(C)COCCCCCCCC)c(c1)C(=O)Nc1ccc(NC(=O)C(C)(C)COCCCCCCCC)c(c1)C(=O)N2", "note": "[c5a]", "values": [{"measurement": "Association constant Ka, 1:1 complex with Br^−", "setting": "[1]", "value": "(9.82 ± 1.08) × 10^3 M^−1"}, {"measurement": "Association constant Ka, 1:1 complex with I^−", "setting": "[2]; single NMR titration (protons a and b)", "value": "(2.73 ± 0.17) × 10^4 M^−1"}, {"measurement": "Association constant Ka, 1:1 complex with I^−", "setting": "[2]; triplicate NMR titrations (footnote c)", "value": "(3.77 ± 0.25) × 10^4 ^c M^−1"}, {"measurement": "Association constant Ka, 1:1 complex with BF4^−", "setting": "[3]", "value": "(4.73 ± 0.38) × 10^4 M^−1"}, {"measurement": "Association constant Ka, 1:1 complex with IO4^−", "setting": "[4]", "value": "(1.18 ± 0.08) × 10^4 M^−1"}, {"measurement": "Association constant Ka, 1:1 complex with PF6^−", "setting": "[5]", "value": "not detected"}, {"measurement": "Association constant Ka, 1:1 complex with Cl^−", "setting": "[6]; CH3CN:CHCl3 (5:95, v/v)", "value": "(2.34 ± 0.24) × 10^6 M^−1"}, {"measurement": "Association constant Ka, 1:1 complex with Cl^−", "setting": "[6]; DMSO:CHCl3 (5:95, v/v)", "value": "(1.60 ± 0.10) × 10^4 M^−1"}, {"measurement": "Association constant Ka, 1:1 complex with NO3^−", "setting": "[7]", "value": "(1.30 ± 0.10) × 10^6 M^−1"}, {"measurement": "Association constant Ka, 1:1 complex with BF4^−", "setting": "[8]", "value": "(8.70 ± 0.40) × 10^5 M^−1"}, {"measurement": "Association constant Ka, 1:1 complex with IO4^−", "setting": "[9]; CH3CN:CHCl3 (5:95, v/v)", "value": "(2.54 ± 0.22) × 10^7 M^−1"}, {"measurement": "Association constant Ka, 1:1 complex with IO4^−", "setting": "[9]; DMSO:CHCl3 (5:95, v/v)", "value": "(1.72 ± 0.05) × 10^5 M^−1"}, {"measurement": "Association constant Ka, 1:1 complex with PF6^−", "setting": "[10]; CH3CN:CHCl3 (5:95, v/v)", "value": "(1.23 ± 0.17) × 10^7 M^−1"}, {"measurement": "Association constant Ka, 1:1 complex with PF6^−", "setting": "[10]; DMSO:CHCl3 (5:95, v/v)", "value": "(2.80 ± 0.20) × 10^4 M^−1"}, {"measurement": "sequence of halide transport efficiency (reduction of lucigenin fluorescence)", "setting": "[11]", "value": "Cl^−>Br^−>I^−"}, {"measurement": "transmembrane ion transport in the presence of LiCl, NaCl, KCl, or RbCl", "setting": "[12]", "value": "insignificant difference"}, {"measurement": "solubility in organic solvents", "setting": "Solubility", "value": "soluble"}]}
